One data set concerns HepG2. Briefly: MTT cytotoxic assay. It is filed as cell-based, human. Particulars: mean value ± SD. The method, then: (§1) Three human hepatocarcinoma cell lines (SMMC-7721, HepG2 and Hep3B) and normal hepatocyte cell line (QSG-7701) were maintained in Dulbecco Modified Eagle Medium (DMEM) containing 4.0 mM L-Glutamine and 4500 mg/l Glucose supplemented with 10% (v/v) foetalbovine serum (FBS) and 100 unites/mL penicillin/streptomycin at 37 °C in humidified atmosphere of 5% CO2 and 95% air.
(§2) The in vitro cytotoxic activities of the carbazole derivatives of DHA were evaluated against three human hepatocarcinoma cell lines (SMMC-7721, HepG2 and Hep3B) and a normal human hepatocyte cell line (QSG-7701) via the MTT colorimetric method. Briefly, SMMC-7721, HepG2, Hep3B and QSG-7701 cells were harvested at log phase of growth and seeded in 96-well plates (100 µL/well at a density of 2 × 10^5 cells/mL). After 24 h incubation at 37 °C and 5% CO2 to allow cell attachment, cultures were exposed to various concentrations of the isolated compounds for 48 h. Finally, MTT solution (2.5 mg/mL in PBS) was added (40 µL/well). Plates were further incubated for 4 h at 37 °C, and the formazan crystals formed were dissolved by adding 150 µL/well of DMSO. Absorption at 570 nm was measured with an ELISA plate reader. […] Doxorubicin was co-assayed as positive control.

The next data set relates to Hep3B. Briefly: MTT cytotoxic assay. It counts as cell-based, human. Particulars: 48 h, mean value ± SD. On the procedure:
as §1, §2
(Tetrazolium assays rely on reduction of a dye to a coloured formazan, in cell work by metabolically active cells.)

The next data set relates to SMMC-7721. Briefly: MTT cytotoxic assay. Particulars: mean value ± SD. It counts as cell-based, human. On the procedure:
as §1, §2

Data set [1] has as its system normal hepatocyte cell line (QSG-7701). Briefly: MTT cytotoxic assay on normal hepatocytes. It is filed as cell-based, human. The settings on record: mean value ± SD. On the procedure:
as §1, §2

Data set [2] deals with three human hepatocarcinoma cell lines (SMMC-7721, HepG2 and Hep3B). Briefly: MTT cytotoxic assay, statements over the three cancer cell lines. It counts as cell-based. The settings on record: for cytotoxic activity against three cancer cell lines (in words): SMMC-7721, HepG2 and Hep3B. On the procedure: as §1, §2
Where [3] appears, read: at least one of SMMC-7721, HepG2, Hep3B, read-out: IC50 against at least one hepatocarcinoma cell line.
[4] abbreviates: Homo sapiens, at least one of SMMC-7721, HepG2, Hep3B, read-out: IC50 against at least one hepatocarcinoma cell line.
Where [5] appears, read: over SMMC-7721, HepG2 and Hep3B, read-out: IC50 against the three cancer cell lines.

Where two headings read alike, the source gives them in different places.

From publication PMC6720511, “Synthesis and biological evaluation of novel N-(piperazin-1-yl)alkyl-1H-dibenzo[a,c]carbazole derivatives of dehydroabietic acid as potential MEK inhibitors” (Journal of Enzyme Inhibition and Medicinal Chemistry, 2019) come the findings set out here.

For the compound “2,3,4,4a,9,13c-Hexahydro-7-isopropyl-1,4a-dimethyl-9–(2-(4-formylpiperazin-1-yl)butyl)-1H-dibenzo[a,c]carbazole-1-carboxylic acid methyl ester [Compound 8e]”, the IC50 in the data set with HepG2 (48 h) was 41.2 ± 3.56 µM; in the data set on Hep3B, 38 ± 1.75 µM; in the data set with SMMC-7721 (48 h), 32.1 ± 2.78 µM; in data set [1] (48 h) it was greater than 50 µM. In data set [2], the “cytotoxic activity against three cancer cell lines (in words)” value (“cytotoxic activity” for short) is listed as “moderate inhibitions”.
As for `COC(=O)C1(C)CCCC2(C)c3ccc(C(C)C)cc3-c3c(c4ccccc4n3CCN3CCN(c4ccccn4)CC3)C12` (stereo not shown) [Compound 6g, 2,3,4,4a,9,13c-Hexahydro-7-isopropyl-1,4a-dimethyl-9–(2-(4-(pyridine-2-yl)piperazin-1-yl)ethyl)-1H-dibenzo[a,c]carbazole-1-carboxylic acid methyl ester], the IC50 with HepG2 (Homo sapiens, HepG2, 48 h) is greater than 50 µM; in the data set on Hep3B (Homo sapiens, Hep3B) it was greater than 50 µM; with SMMC-7721 (Homo sapiens, SMMC-7721, 48 h), greater than 50 µM.
“2,3,4,4a,9,13c-Hexahydro-7-isopropyl-1,4a-dimethyl-9–(3-(4-methyl piperazin-1-yl)butyl)-1H-dibenzo[a,c]carbazole-1-carboxylic acid methyl ester [Compound 8b]”: the IC50 is 19.6 ± 2.91 µM in the data set on HepG2 (48 h), 18.3 ± 1.02 µM in the data set on Hep3B, 34.9 ± 3.35 µM in the data set on SMMC-7721 (48 h) and greater than 50 µM in data set [1] (48 h).
As for “2,3,4,4a,9,13c-Hexahydro-7-isopropyl-1,4a-dimethyl-9–(2-(1,4-diazepan-1-yl) propyl)-1H-dibenzo[a,c]carbazole-1-carboxylic acid methyl ester [Compound 7d]”, the IC50 is 8.68 ± 1.13 µM in the data set on HepG2 (48 h); 12.8 ± 0.67 µM in the data set on Hep3B; 10.3 ± 1.02 µM in the data set on SMMC-7721 (48 h); 32.8 ± 3.22 µM in data set [1] (48 h); less than 10 µM in data set [2] (setting [3]).
Regarding `COC(=O)C1(C)CCCC2(C)c3ccc(C(C)C)cc3-c3c(c4ccccc4n3CCN3CCN(C)CC3)C12` (stereo not shown) [Compound 6b, 2,3,4,4a,9,13c-Hexahydro-7-isopropyl-1,4a-dimethyl-9–(2-(4-methylpiperazin-1-yl)ethyl)-1H-dibenzo[a,c]carbazole-1-carboxylic acid methyl ester], the IC50 with HepG2 (Homo sapiens, HepG2, 48 h) is 11.7 ± 0.58 µM; in the data set with Hep3B (Homo sapiens, Hep3B), 6.78 ± 0.42 µM; with SMMC-7721 (Homo sapiens, SMMC-7721, 48 h), 13.2 ± 0.76 µM; in data set [1] (Homo sapiens, QSG7701, 48 h) it was 27.5 ± 1.87 µM; in data set [2] (setting [4]), less than 10 µM.
For `COC(=O)C1(C)CCCC2(C)c3ccc(C(C)C)cc3-c3c(c4ccccc4n3CCN3CCCNCC3)C12` (stereo not shown) [Compound 6d, 2,3,4,4a,9,13c-Hexahydro-7-isopropyl-1,4a-dimethyl-9–(2-(1,4-diazepan-1-yl)ethyl)-1H-dibenzo[a,c]carbazole-1-carboxylic acid methyl ester], in that order: 5.87 ± 0.42 µM, 6.31 ± 0.33 µM, 7.01 ± 0.74 µM, 22.1 ± 2.75 µM and less than 10 µM.
“2,3,4,4a,9,13c-Hexahydro-7-isopropyl-1,4a-dimethyl-9–(2-(4-phenyl piperazin-1-yl)butyl)-1H-dibenzo[a,c]carbazole-1-carboxylic acid methyl ester [Compound 8f]”: the concentration for half-maximal inhibition (IC50) in the data set with HepG2 (48 h), in the data set on Hep3B and in the data set with SMMC-7721 (48 h) was greater than 50 µM in each case.
For the compound “2,3,4,4a,9,13c-Hexahydro-7-isopropyl-1,4a-dimethyl-9–(2-(4-phenyl piperazin-1-yl)propyl)-1H-dibenzo[a,c]carbazole-1-carboxylic acid methyl ester [Compound 7f]”, the IC50 in the data set with HepG2 (48 h), in the data set with Hep3B and in the data set with SMMC-7721 (48 h) was greater than 50 µM each time.
With “2,3,4,4a,9,13c-Hexahydro-7-isopropyl-1,4a-dimethyl-9–(2-(1,4-diazepan-1-yl) butyl)-1H-dibenzo[a,c]carbazole-1-carboxylic acid methyl ester [Compound 8d]”, the IC50 in the data set with HepG2 (48 h) is 11.5 ± 1.23 µM; in the data set with Hep3B it was 14.4 ± 0.77 µM; in the data set on SMMC-7721 (48 h) it was 12.8 ± 0.84 µM; in data set [1] (48 h), 43.6 ± 4.03 µM.
With `COC(=O)C1(C)CCCC2(C)c3ccc(C(C)C)cc3-c3c(c4ccccc4n3CCN3CCN(c4ccccc4)CC3)C12` (stereo not shown) [Compound 6f, 2,3,4,4a,9,13c-Hexahydro-7-isopropyl-1,4a-dimethyl-9–(2-(4-phenylpiperazin-1-yl)ethyl)-1H-dibenzo[a,c]carbazole-1-carboxylic acid methyl ester], the IC50 with HepG2 (Homo sapiens, HepG2, 48 h) was greater than 50 µM; with Hep3B (Homo sapiens, Hep3B), greater than 50 µM; in the data set on SMMC-7721 (Homo sapiens, SMMC-7721, 48 h) it was greater than 50 µM.
As for “2,3,4,4a,9,13c-Hexahydro-7-isopropyl-1,4a-dimethyl-9–(2-(piperazin-1-yl) propyl)-1H-dibenzo[a,c]carbazole-1-carboxylic acid methyl ester [Compound 7a]”, the IC50 in the data set on HepG2 (48 h) is 3.1 ± 0.45 µM; in the data set on Hep3B, 1.37 ± 0.2 µM; with SMMC-7721 (48 h) it was 5.1 ± 0.18 µM; in data set [1] (48 h) it was 17.2 ± 1.89 µM; in data set [2] (setting [3]), less than 10 µM; in data set [2] (setting [5]), 1.37 to 5.1 µM.
Regarding `COc1cccc2c1C(=O)c1c(O)c3c(c(O)c1C2=O)C[C@@](O)(C(=O)CO)C[C@@H]3O[C@H]1C[C@H](N)[C@H](O)[C@H](C)O1` [Doxorubicin, reference compound], the IC50 in the data set on HepG2 (Homo sapiens, HepG2, 48 h) was determined as 2.38 ± 0.29 µM; in the data set on Hep3B (Homo sapiens, Hep3B) it was 1.02 ± 0.09 µM; in the data set with SMMC-7721 (Homo sapiens, SMMC-7721, 48 h), 1.13 ± 0.11 µM; in data set [1] (Homo sapiens, QSG7701, 48 h) it was 13.8 ± 0.53 µM.
Take “2,3,4,4a,9,13c-Hexahydro-7-isopropyl-1,4a-dimethyl-9–(2-(piperazin-1-yl) butyl)-1H-dibenzo[a,c]carbazole-1-carboxylic acid methyl ester [Compound 8a]”: the IC50 with HepG2 (48 h) was 4.8 ± 0.32 µM; in the data set on Hep3B, 2.89 ± 0.27 µM; in the data set with SMMC-7721 (48 h) it was 6.1 ± 0.47 µM; in data set [1] (48 h) it was 23.4 ± 2.97 µM; in data set [2] (setting [3]), less than 10 µM; in data set [2] (setting [5]), 2.89 to 6.1 µM.
`COC(=O)C1(C)CCCC2(C)c3ccc(C(C)C)cc3-c3c(c4ccccc4n3CCN3CCN(Cc4ccccc4)CC3)C12` (stereo not shown) [Compound 6h, 2,3,4,4a,9,13c-Hexahydro-7-isopropyl-1,4a-dimethyl-9–(2-(4-benzylpiperazin-1-yl)ethyl)-1H-dibenzo[a,c]carbazole-1-carboxylic acid methyl ester]: the IC50 was greater than 50 µM in the data set with HepG2 (Homo sapiens, HepG2, 48 h); greater than 50 µM in the data set with Hep3B (Homo sapiens, Hep3B); greater than 50 µM with SMMC-7721 (Homo sapiens, SMMC-7721, 48 h).
As for “2,3,4,4a,9,13c-Hexahydro-7-isopropyl-1,4a-dimethyl-9–(2-(4-benzylpiperazin -1-yl)butyl)-1H-dibenzo[a,c]carbazole-1-carboxylic acid methyl ester [Compound 8h]”, the IC50 with HepG2 (48 h), with Hep3B and in the data set on SMMC-7721 (48 h) was greater than 50 µM in each case.
“2,3,4,4a,9,13c-Hexahydro-7-isopropyl-1,4a-dimethyl-9–(2-(4-benzylpiperazin-1-yl)propyl)-1H-dibenzo[a,c]carbazole-1-carboxylic acid methyl ester [Compound 7h]”: the IC50 in the data set with HepG2 (48 h), in the data set with Hep3B and in the data set on SMMC-7721 (48 h) was greater than 50 µM throughout.
As for “2,3,4,4a,9,13c-Hexahydro-7-isopropyl-1,4a-dimethyl-9–(2-(4-ethylpiperazin -1-yl)propyl)-1H-dibenzo[a,c]carbazole-1-carboxylic acid methyl ester [Compound 7c]”, the IC50 was greater than 50 µM in the data set with HepG2 (48 h), 40.7 ± 2.62 µM in the data set with Hep3B and greater than 50 µM in the data set on SMMC-7721 (48 h). In addition, in data set [2], the “cytotoxic activity” value was “weak or no inhibitions”.
Turning to “2,3,4,4a,9,13c-Hexahydro-7-isopropyl-1,4a-dimethyl-9–(2-(4-(pyridine-2-yl) piperazin-1-yl)butyl)-1H-dibenzo[a,c]carbazole-1-carboxylic acid methyl ester [Compound 8g]”, the 50% inhibitory concentration (IC50) with HepG2 (48 h), with Hep3B and with SMMC-7721 (48 h) was greater than 50 µM each time.
Regarding “2,3,4,4a,9,13c-Hexahydro-7-isopropyl-1,4a-dimethyl-9–(2-(4-ethylpiperazin -1-yl)butyl)-1H-dibenzo[a,c]carbazole-1-carboxylic acid methyl ester [Compound 8c]”, the IC50 in the data set on HepG2 (48 h), in the data set with Hep3B and in the data set on SMMC-7721 (48 h) was greater than 50 µM throughout. The “cytotoxic activity” value in data set [2] is reported as “weak or no inhibitions”.
“2,3,4,4a,9,13c-Hexahydro-7-isopropyl-1,4a-dimethyl-9–(2-(4-(pyridine-2-yl) piperazin-1-yl)propyl)-1H-dibenzo[a,c]carbazole-1-carboxylic acid methyl ester [Compound 7g]”: the IC50 in the data set with HepG2 (48 h), with Hep3B and in the data set with SMMC-7721 (48 h) was greater than 50 µM in each case.

One may read the IC50 as the concentration at which inhibition is half-maximal.
